For 26 molecules, EC50 results are on record in patent US20230002334A1, “TRPM8 MODULATORS” (Givaudan SA, priority 2019, published 2023).

The assay addresses T1, hTRPM8 (Homo sapiens, UniProt Q7Z2W7).
T1 construct: expressed in transfected cells
Put plainly: Assay on TRPM8 modulators: calcium imaging (Fluo-4, Flexstation) in HEK293 cell line stably expressing hTRPM8. Type of assay: cell-based. Conditions: HEK293 cells stably expressing hTRPM8, calcium influx, sigmoidal dose-response fit; read-out: EC50. As to the method:
A HEK293 cell line stably expressing hTRPM8 was generated according to Klein et al., (Chem. Senses 36: 649-658, 2011) and receptor activation was monitored by calcium imaging in a Flexstation. For Ca-imaging assays of TRPM8 channel activation, cells were seeded on day 0 at a density of 12000 cells per well in Dulbecco's modified Eagle medium (DMEM) containing 9% foetal bovine serum in black, clear bottom 96-well plates that had been coated with 0.001% polyethyleneimine (molecular weight=60 000, Acros Organics). On day 2, agonists were evaluated via calcium imaging using Fluo-4. Briefly, growth medium was discarded, and the cells were incubated in the dark for 1 h at 37° C. in 50 μL loading buffer consisting of 2.7 μM Fluo-4 AM (Invitrogen) and […] probenecid (Sigma-Aldrich) in DMEM (without serum). After incubation, the plates were washed five times with 100 μL of assay buffer (in mM: 130 NaCl, 5 KCl, 10 HEPES, 2 CaCl2, and 10 glucose, pH7.4.) and further incubated in the dark at room temperature for 30 min. The cells were then washed five times with 100 μL assay buffer and then calcium influx to serial dilutions of inventive compounds were measured in a Flexstation 3 (Molecular Devices). Receptor activation was initiated following addition of 20 μl of a 10-fold concentrated ligand stock solution, which is also prepared in assay buffer. Fluorescence was continuously monitored for 15 seconds prior to ligand addition and for 105 seconds after ligand addition, for a total of 120 seconds. Maximal receptor activation in relation to solvent control and relative to 31.6 μM menthol is determined. Data from serial dilutions were processed with a KNIME workflow to fit a sigmoidal dose-response curve and to extrapolate EC50 values.

T1 sequence (Q7Z2W7 whole entry): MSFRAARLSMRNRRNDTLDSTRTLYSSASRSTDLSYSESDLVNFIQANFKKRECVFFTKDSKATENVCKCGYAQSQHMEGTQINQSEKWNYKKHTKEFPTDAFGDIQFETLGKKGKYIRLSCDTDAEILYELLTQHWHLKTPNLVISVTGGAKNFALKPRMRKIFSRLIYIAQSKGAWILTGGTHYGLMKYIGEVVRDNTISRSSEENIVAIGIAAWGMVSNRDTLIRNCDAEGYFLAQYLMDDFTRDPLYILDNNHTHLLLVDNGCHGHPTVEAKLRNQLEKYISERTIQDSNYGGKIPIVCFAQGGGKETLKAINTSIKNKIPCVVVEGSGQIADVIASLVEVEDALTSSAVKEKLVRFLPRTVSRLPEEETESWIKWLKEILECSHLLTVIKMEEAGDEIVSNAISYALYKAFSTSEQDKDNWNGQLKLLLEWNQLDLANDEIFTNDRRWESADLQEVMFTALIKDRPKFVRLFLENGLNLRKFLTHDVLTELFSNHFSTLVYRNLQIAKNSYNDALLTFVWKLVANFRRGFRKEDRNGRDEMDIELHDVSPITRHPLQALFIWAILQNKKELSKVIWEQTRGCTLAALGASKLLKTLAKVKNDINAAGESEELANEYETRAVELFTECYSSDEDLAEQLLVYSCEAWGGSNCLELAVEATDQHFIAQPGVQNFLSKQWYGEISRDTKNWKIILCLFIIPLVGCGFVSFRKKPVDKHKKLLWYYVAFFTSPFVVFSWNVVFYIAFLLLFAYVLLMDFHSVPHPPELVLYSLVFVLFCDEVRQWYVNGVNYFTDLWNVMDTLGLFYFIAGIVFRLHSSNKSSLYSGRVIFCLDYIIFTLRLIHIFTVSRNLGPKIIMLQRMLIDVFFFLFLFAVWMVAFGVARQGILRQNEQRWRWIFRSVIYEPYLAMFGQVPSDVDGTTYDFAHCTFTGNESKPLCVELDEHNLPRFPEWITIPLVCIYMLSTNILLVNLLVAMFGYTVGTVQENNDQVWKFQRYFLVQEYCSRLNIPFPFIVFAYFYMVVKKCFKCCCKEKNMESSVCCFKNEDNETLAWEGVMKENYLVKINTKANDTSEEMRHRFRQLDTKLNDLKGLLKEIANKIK

On to `CCCCC[C@@H]1CC[C@@H]2[C@@H](C1)C(C)(C)ON2C` (racemic) [Compound 23, rac-(3aR,5R,7aR)-1,3,3-trimethyl-5-pentyloctahydrobenzo[c]isoxazole], for which the EC50 fell in the range of 0.3 to 1 µM.
In the case of `CCC[C@@H]1CC[C@@H]2[C@@H](C1)C(C)(C)ON2C` (racemic) [Compound 24, rac-(3aR,5R,7aR)-1,3,3-trimethyl-5-propyloctahydrobenzo[c]isoxazole] it was 0.3 to 1 µM; in that of `CCC[C@@H]1CC[C@@H]2[C@@H](C1)C(C)(C)ON2CC` (racemic) [Compound 25, rac-(3aR,5R,7aR)-1-ethyl-3,3-dimethyl-5-propyloctahydrobenzo[c]isoxazole], 0.3 to 1 µM.
In the case of `CCCC[C@@H]1CC[C@@H]2[C@@H](C1)C(C)(C)ON2C` (racemic) [Compound 27, rac-(3aR,5R,7aR)-5-butyl-1,3,3-trimethyloctahydrobenzo[c]isoxazole], the half-maximal effective concentration (EC50) lay in the range of 0.3 to 1 µM.
`CCCC[C@@H]1CC[C@@H]2[C@@H](C1)C(C)(C)ON2CC` (racemic) [Compound 28, rac-(3aR,5R,7aR)-5-butyl-1-ethyl-3,3-dimethyloctahydrobenzo[c]isoxazole]: the concentration giving a half-maximal response (EC50) was in the range of 0.3 to 1 µM.
In the case of `CCCC[C@@H]1CC[C@@H]2[C@@H](C1)C(C)(C)ON2C(C)C` (racemic) [Compound 29, rac-(3aR,5R,7aR)-5-butyl-1-isopropyl-3,3-dimethyloctahydrobenzo[c]isoxazole] it was 1 to 35 µM; in that of `CC[C@@H]1CC[C@@H]2[C@@H](C1)C(C)(C)ON2C(C)C` (racemic) [Compound 30, rac-(3aR,5R,7aR)-5-ethyl-1-isopropyl-3,3-dimethyloctahydrobenzo[c]isoxazole], 1 to 35 µM.
In the case of `CSc1ccccc1[C@]1(C)C[C@@H](C)[C@@H]2[C@@H](C1)C(C)(C)ON2C` (racemic) [Compound 31, rac-(3aR,5R,7R,7aR)-1,3,3,5,7-pentamethyl-5-(2-(methylthio)phenyl)octahydrobenzo[c]isoxazole] it was 1 to 35 µM; in that of `CCN1OC(C)(C)[C@@H]2C[C@](C)(CC=C(C)C)C[C@@H](C)[C@H]21` (racemic) [Compound 32, rac-(3aR,5R,7R,7aR)-1-ethyl-3,3,5,7-tetramethyl-5-(3-methylbut-2-en-1-yl)octahydrobenzo[c]isoxazole], 1 to 35 µM; in that of `CCN1OC(C)(C)[C@@H]2C[C@](C)(c3ccccc3C)C[C@@H](C)[C@H]21` (racemic) [Compound 33, rac-(3aR,5R,7R,7aR)-1-ethyl-3,3,5,7-tetramethyl-5-(o-tolyl)octahydrobenzo[c]isoxazole], 0.3 to 1 µM.
With `Cc1c(Cl)cccc1[C@]1(C)C[C@@H](C)[C@@H]2[C@@H](C1)C(C)(C)ON2C` (racemic) [Compound 34, rac-(3aR,5R,7R,7aR)-5-(3-chloro-2-methylphenyl)-1,3,3,5,7-pentamethyloctahydrobenzo[c]isoxazole], the EC50 lay in the range of 0.3 to 1 µM.
Take `Cc1cc(F)ccc1[C@]1(C)C[C@@H](C)[C@@H]2[C@@H](C1)C(C)(C)ON2C` (racemic) [Compound 35, rac-(3aR,5R,7R,7aR)-5-(4-fluoro-2-methylphenyl)-1,3,3,5,7-pentamethyloctahydrobenzo[c]isoxazole]: the half-maximal effective concentration (EC50) is 1 to 35 µM.
As for `COc1ccc([C@]2(C)C[C@@H](C)[C@@H]3[C@@H](C2)C(C)(C)ON3C)cc1` (racemic) [Compound 36, rac-(3aR,5R,7R,7aR)-5-(4-methoxyphenyl)-1,3,3,5,7-pentamethyloctahydrobenzo[c]isoxazole], the EC50 lay in the range of 1 to 35 µM.
The value for `CSc1ccccc1[C@@]1(C)C[C@@H]2[C@@H]([C@@H](C)C1)N(C)OC2(C)C` (racemic) [Compound 37, rac-(3aR,5R,7S,7aR)-1,3,3,5,7-pentamethyl-5-(2-(methylthio)phenyl)octahydrobenzo[c]isoxazole] was 0.05 to 0.3 µM.
Regarding `Cc1cc(C)c([C@@]2(C)C[C@@H]3[C@@H]([C@@H](C)C2)N(C)OC3(C)C)cc1C` (racemic) [Compound 38, rac-(3aR,5R,7S,7aR)-1,3,3,5,7-pentamethyl-5-(2,4,5-trimethylphenyl)octahydrobenzo[c]isoxazole], the EC50 lay within 0.05 to 0.3 µM.
Consider `Cc1ccc(C(F)(F)F)cc1[C@@]1(C)C[C@@H]2[C@@H]([C@@H](C)C1)N(C)OC2(C)C` (racemic) [Compound 39, rac-(3aR,5R,7S,7aR)-1,3,3,5,7-pentamethyl-5-(2-methyl-5-(trifluoromethyl)phenyl)octahydrobenzo[c]isoxazole], for which the EC50 lay in the range of 0.3 to 1 µM.
Regarding `CSc1ccc([C@@]2(C)C[C@@H]3[C@@H]([C@@H](C)C2)N(C)OC3(C)C)cc1` (racemic) [Compound 40, rac-(3aR,5R,7S,7aR)-1,3,3,5,7-pentamethyl-5-(4-(methylthio)phenyl)octahydrobenzo[c]isoxazole], the EC50 lay within 0.05 to 0.3 µM.
Regarding `Cc1ccc([C@@]2(C)C[C@@H]3[C@@H]([C@@H](C)C2)N(C)OC3(C)C)s1` (racemic) [Compound 41, rac-(3aR,5R,7S,7aR)-1,3,3,5,7-pentamethyl-5-(5-methylthiophen-2-yl)octahydrobenzo[c]isoxazole], the 50% effective concentration (EC50) is 0.3 to 1 µM.
The value for `Cc1cc([C@@]2(C)C[C@@H]3[C@@H]([C@@H](C)C2)N(C)OC3(C)C)cs1` (racemic) [Compound 42, rac-(3aR,5R,7S,7aR)-1,3,3,5,7-pentamethyl-5-(5-methylthiophen-3-yl)octahydrobenzo[c]isoxazole] was 0.05 to 0.3 µM.
For the molecule `Cc1cccc([C@@]2(C)C[C@@H]3[C@@H]([C@@H](C)C2)N(C)OC3(C)C)c1` (racemic) [Compound 43, rac-(3aR,5R,7S,7aR)-1,3,3,5,7-pentamethyl-5-(m-tolyl)octahydrobenzo[c]isoxazole], the concentration for a half-maximal effect (EC50) lay within 0.05 to 0.3 µM.
The value for `C[C@H]1C[C@@](C)(c2cccc3ccccc23)C[C@@H]2[C@@H]1N(C)OC2(C)C` (racemic) [Compound 44, rac-(3aR,5R,7S,7aR)-1,3,3,5,7-pentamethyl-5-(naphthalen-1-yl)octahydrobenzo[c]isoxazole] was 0.3 to 1 µM; that for `C[C@H]1C[C@@](C)(c2ccc3ccccc3c2)C[C@@H]2[C@@H]1N(C)OC2(C)C` (racemic) [Compound 45, rac-(3aR,5R,7S,7aR)-1,3,3,5,7-pentamethyl-5-(naphthalen-2-yl)octahydrobenzo[c]isoxazole] was 0.05 to 0.3 µM; that for `Cc1ccc([C@@]2(C)C[C@@H]3[C@@H]([C@@H](C)C2)N(C)OC3(C)C)cc1` (racemic) [Compound 47, rac-(3aR,5R,7S,7aR)-1,3,3,5,7-pentamethyl-5-(p-tolyl)octahydrobenzo[c]isoxazole] was 0.05 to 0.3 µM.
In the case of `CCC[C@@]1(C)C[C@@H]2[C@@H]([C@@H](C)C1)N(C)OC2(C)C` (racemic) [Compound 49, rac-(3aR,5R,7S,7aR)-1,3,3,5,7-pentamethyl-5-propyloctahydrobenzo[c]isoxazole], the EC50 was in the range of 0.3 to 1 µM.
In the case of `Cc1ccccc1[C@H]1C[C@@H]2[C@@H]([C@@H](C)C1)N(C)OC2(C)C` (racemic) [Compound 51, rac-(3aR,5R,7S,7aR)-1,3,3,7-tetramethyl-5-(o-tolyl)octahydrobenzo[c]isoxazole] it was 0.3 to 1 µM; in that of `C[C@H]1C[C@@H](c2ccccc2)C[C@@H]2[C@@H]1N(C)OC2(C)C` (racemic) [Compound 52, rac-(3aR,5R,7S,7aR)-1,3,3,7-tetramethyl-5-phenyloctahydrobenzo[c]isoxazole], 0.05 to 0.3 µM.

Broadly, the EC50 is the concentration needed to bring the measured effect to its halfway point.
